From patent US20130202619A1, “METHODS AND MATERIALS FOR REDUCING LIVER FIBROSIS” (MAYO FOUNDATION FOR MEDICAL EDUCATION AND RESEARCH, priority 2010, published 2013)
Where “and” joins values, the source holds several entries; their conditions need not be identical. Equal values may be shown once. Entries after “also recorded” stand apart in the source; their conditions may differ.

Tests used:
Assay type in all cases: cell-based, human
HuH7 cells [1] = experiment: Response of HuH7 cells to TGFβ1 (gene expression by real-time PCR, cell fate)
Experimental: (§1) The hepatocyte cell line HuH7, the cholangiocyte cell line H69, and the hepatic stellate cell line LX2 were grown to confluence in DMEM with 10% fetal bovine serum and antibiotics Penicillin (100 U/mL) and Streptomycin (10 μg/mL) at 37° C. and 5% CO2 Cells were harvested, washed in cold phosphate buffered saline and snap frozen. […] At 24, 48 and 72 hours, cells were trypsin digested, washed three times with ice cold phosphate buffered saline and quick frozen at −80° C. in two separate lots for either protein or RNA extraction. In separate experiments, palmitic or stearic acid was added to the culture media of HuH7 cells at a concentration of 400 μM (Cazanave et al., J. Biol. Chem., 284:26591-26602 (2009)). All experiments were carried out in triplicate and results are reported as the average of triplicates.
(§2) Total RNA was isolated from cells collected from the cell culture experiments (described herein) or from liver tissue samples collected from patient or from mouse experiments (described herein) using the RNeasy Plus kit as per the manufacturer's instructions (Qiagen, GmbH, Germany). 500 ng of total RNA was reverse transcribed into cDNA using random hexamers (Transcriptor High Fidelity cDNA synthesis kit, Roche, USA). Real time PCR was carried on a LightCycler (Roche, CA, USA) using equal quantities of template cDNA in a total volume of 20 μL using Lightcycler FastStart DNA Master SYBR green1 (Roche, Indianapolis, USA). Expression of 18S rRNA was used as the internal standard (Quantum RNA 18S Internal Standards, Ambion Inc, Austin, Tex., USA). Standard curves were generated for each optimized assay using known PCR copy numbers to produce a linear plot of threshold cycle (Ct) against log dilution. Data for lumican is presented as lumican copy number normalized against the 18S absolute copy number where indicated. For all other gene expression assays, results are presented as fold change as represented by the expression 2^−ΔΔCt (Schmittgen & Livak, Nat. Protoc., 3:1101-1108 (2008)).
(§3) HuH7 or LX2 cells were plated at uniform density in single well chamber slides adopting the same protocol as for cell culture described above. At time points of 0, 24, 48, and 72 hours post seeding, medium was aspirated, slides were washed with phosphate buffered saline, air dried and stored at −80° C. until staining. Briefly, cells were fixed in acetone, followed by 1% paraformaldehyde. Cells were immunostained with anti human lumican at dilution of 1:50 (Santa Cruz, USA) and detected with appropriate FITC labeled secondary antibodies (MP Biomedicals, OH, USA). Negative controls consisted of identical treatments with omission of primary antibody. DAPI was used for nuclear staining (Sigma, MO, USA). Images were captured on an Olympus microscope with appropriate filter settings for FITC (green) and DAPI (blue).
(§4) Gene expression data presented as copy number are expressed as mean±standard error. Fold changes represent values normalized to 18S and to time point of 0 hours. To assess significance of difference between treatments, the paired 2-tailed student's test with equal variance was used. A p value of <0.05 was considered statistically significant.

LX2 cells = experiment: Response of LX2 cells to TGFβ1 (gene expression by real-time PCR, cell fate)
Experimental: as §1, §2, §3, §4

HuH7 cells [2] = experiment: Lumican gene expression in HuH7 cells exposed to free fatty acids (real-time PCR); settings: 400 μM fatty acid, 6 hours
Experimental: as §1, §2
Gene expression data presented as copy number are expressed as mean±standard error. […]

[3] = HuH7 cells, TGFβ1 2 ng/mL, 48 hours

Compound | increase in collagen 1α1 gene expression (HuH7 cells [1]; HuH7 cells, TGFβ1 2 ng/mL, 24 hours) [fold] | increase in collagen 1α1 gene expression (HuH7 cells [1]; [3]) [fold] | increase in lumican gene expression (HuH7 cells [1]; [3]) | increase in lumican gene expression over baseline (HuH7 cells [1]; HuH7 cells, TGFβ1 2 ng/mL, 72 hours) | cell fate (apoptosis / proliferation) (HuH7 cells [1]; HuH7 cells, TGFβ1 2 ng/mL, over 72 hours) | decrease in albumin production (HuH7 cells [1]; HuH7 cells, TGFβ1, 24 hours) [fold] | increase in alpha smooth muscle actin expression (HuH7 cells [1]; HuH7 cells, TGFβ1, 48 hours) | decrease in albumin production (HuH7 cells [1]; HuH7 cells, TGFβ1, 48 hours (48-72 hours)) | beta 1 integrin expression (HuH7 cells [1]; HuH7 hepatocytes, TGFβ1 2 ng/mL, up to 72 hours) | increase in lumican gene expression over baseline (LX2 cells; LX2 cells, TGFβ1 2 ng/mL, 72 hours) [fold] | cell fate (apoptosis / proliferation) (LX2 cells; LX2 cells, TGFβ1 2 ng/mL, over 72 hours) | increase in alpha smooth muscle actin expression (LX2 cells; LX2 cells, TGFβ1, 48 hours) [fold] | increase in collagen 1α1 gene expression (LX2 cells; LX2 stellate cells, TGFβ1 2 ng/mL, 24 hours) [fold] | increase in collagen 1α1 gene expression (LX2 cells; LX2 stellate cells, TGFβ1 2 ng/mL, 48 hours) [fold] | beta 1 integrin expression (LX2 cells; LX2 stellate cells, TGFβ1 2 ng/mL, up to 72 hours) | increase in lumican expression (HuH7 cells [2]) | increase in lumican expression (HuH7 cells [2]; listed as palmitic)
TGFβ1: pro-fibrotic cytokine transforming growth factor β1 (R&D systems), used at 2 ng/mL | 9 | > 100 | four fold | 15 fold and 14 fold | underwent apoptosis | 10 | fourfold; also recorded: four fold | five fold; also recorded: four fold | no change | 27 | continued to proliferate | 4.5 | 4 | 5 | gradual increase | – | –
CCCCCCCCCCCCCCCCCC(=O)O [stearic acid] | – | – | – | – | – | – | – | – | – | – | – | – | – | – | – | 1.9 fold and 2 fold | –
CCCCCCCCCCCCCCCC(=O)O [palmitic acid] | – | – | – | – | – | – | – | – | – | – | – | – | – | – | – | 3.1 fold | three fold
